In patent US10179782B2, “Substituted sulfonamide compounds” (Genentech, Inc., priority 2016, dated 2019) one finds IC50 data, which are given here for 23 compounds.

In the assay the target is T1, human TRPA1 (Homo sapiens, UniProt O75762).
T1 construct: expressed in transfected cells; host or cells: CHO cells
The experiment in a line: TRPA1 FLIPR Tetra calcium influx assay in CHO cells (block of cinnamaldehyde-induced calcium influx). The following applies: Table 2; CHO cells expressing TRPA1; agonist cinnamaldehyde 75 uM; 20 min compound incubation; Hill coefficient fixed to 1.5; read-out: hTRPA1 CHO Ca2+ AUC EVO (IC50). The assay is classed as cell-based. Put shortly:
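CHO cells expressing TRPA1 were loaded with calcium dye in HBSS/20 mM HEPES, pH 7.4, 0.02% BSA, then given compound for 20 min at room temperature before ~EC80 cinnamaldehyde (75 µM human, 45 µM rat). Block of calcium influx was read on FLIPR Tetra; IC50 fitted with Hill coefficient fixed at 1.5.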

T1 sequence (O75762 whole entry): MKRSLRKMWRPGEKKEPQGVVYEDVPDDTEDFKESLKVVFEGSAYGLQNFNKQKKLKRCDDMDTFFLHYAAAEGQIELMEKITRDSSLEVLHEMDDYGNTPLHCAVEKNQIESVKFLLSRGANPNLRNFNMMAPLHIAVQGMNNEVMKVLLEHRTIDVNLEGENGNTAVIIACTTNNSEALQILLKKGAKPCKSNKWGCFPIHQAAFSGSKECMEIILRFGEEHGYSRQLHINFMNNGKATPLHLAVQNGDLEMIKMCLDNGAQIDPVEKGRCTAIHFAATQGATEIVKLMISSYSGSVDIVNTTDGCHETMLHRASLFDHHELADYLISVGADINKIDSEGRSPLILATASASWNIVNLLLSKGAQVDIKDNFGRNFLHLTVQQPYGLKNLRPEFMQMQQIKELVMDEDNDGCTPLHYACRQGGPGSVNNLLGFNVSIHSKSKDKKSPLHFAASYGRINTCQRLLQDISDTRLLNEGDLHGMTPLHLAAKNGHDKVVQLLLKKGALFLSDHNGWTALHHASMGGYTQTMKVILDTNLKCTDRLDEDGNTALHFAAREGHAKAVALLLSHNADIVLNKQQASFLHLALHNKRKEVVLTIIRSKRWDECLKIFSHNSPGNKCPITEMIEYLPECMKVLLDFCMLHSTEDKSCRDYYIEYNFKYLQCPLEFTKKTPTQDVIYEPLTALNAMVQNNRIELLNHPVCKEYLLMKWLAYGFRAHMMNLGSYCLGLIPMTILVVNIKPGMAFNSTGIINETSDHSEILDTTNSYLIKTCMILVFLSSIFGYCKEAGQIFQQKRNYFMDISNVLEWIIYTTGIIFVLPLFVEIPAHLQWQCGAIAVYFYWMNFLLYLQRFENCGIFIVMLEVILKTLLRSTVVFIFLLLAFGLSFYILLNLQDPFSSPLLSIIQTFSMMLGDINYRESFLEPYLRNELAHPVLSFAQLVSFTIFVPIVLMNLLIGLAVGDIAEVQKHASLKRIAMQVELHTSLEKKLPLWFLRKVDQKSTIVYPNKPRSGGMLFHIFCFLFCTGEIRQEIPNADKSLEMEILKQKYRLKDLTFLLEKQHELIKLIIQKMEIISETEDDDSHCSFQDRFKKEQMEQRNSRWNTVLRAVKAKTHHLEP

Consider `C[C@H]1[C@H](F)C[C@@H](C(=O)NCc2cc(-c3cnc(C(F)(F)F)c(C#N)c3)ncc2F)N1S(=O)(=O)c1ccc(F)cc1` [Example 134, (2S,4R,5S)-N-[[2-[5-cyano-6-(trifluoromethyl)-3-pyridyl]-5-fluoro-4-pyridyl]methyl]-4-fluoro-1-(4-fluorophenyl)sulfonyl-5-methyl-pyrrolidine-2-carboxamide], for which the IC50 (usually the midpoint of a concentration-inhibition curve) was 32.6 nM. The result for `C[C@H]1[C@H](F)C[C@@H](C(=O)NCc2nc(-c3cnc(C(F)(F)F)nc3)ncc2C(F)(F)F)N1S(=O)(=O)c1ccc(F)cc1` [Example 135, (2S,4R,5S)-4-fluoro-1-(4-fluorophenyl)sulfonyl-5-methyl-N-[[5-(trifluoromethyl)-2-[2-(trifluoromethyl)pyrimidin-5-yl]pyrimidin-4-yl]methyl]pyrrolidine-2-carboxamide] reads 19.3 nM; that for `C[C@H]1[C@H](F)C[C@@H](C(=O)NCc2cc(-c3cnc(C(F)(F)F)nc3)ncc2CC(F)(F)F)N1S(=O)(=O)c1ccc(F)cc1` [Example 136, (2S,4R,5S)-4-fluoro-1-(4-fluorophenyl)sulfonyl-5-methyl-N-[[5-(2,2,2-trifluoroethyl)-2-[2-(trifluoromethyl)pyrimidin-5-yl]-4-pyridyl]methyl]pyrrolidine-2-carboxamide], 8.11 nM. `C[C@H]1[C@H](F)C[C@@H](C(=O)NCc2cc(-c3cnc(C(F)(F)F)nc3)nc(C3CC3)c2C(F)(F)F)N1S(=O)(=O)c1ccc(F)cc1` [Example 137, (2S,4R,5S)-N-[[2-cyclopropyl-3-(trifluoromethyl)-6-[2-(trifluoromethyl)pyrimidin-5-yl]-4-pyridyl]methyl]-4-fluoro-1-(4-fluorophenyl)sulfonyl-5-methyl-pyrrolidine-2-carboxamide]: the IC50 is 0.7 nM. As to `C[C@H]1[C@H](F)C[C@@H](C(=O)NCc2cc(-c3cnc(C(F)(F)F)nc3)ncc2CF)N1S(=O)(=O)c1ccc(F)cc1` [Example 138], the half-maximal inhibitory concentration (IC50) came to 11.7 nM.

Turning to `C[C@H]1[C@H](F)C[C@@H](C(=O)NCc2cc(-c3ccc(C(F)(F)F)cc3)ncc2OC(F)(F)F)N1S(=O)(=O)c1ccc(F)cc1` [Example 139, (2S,4R,5S)-4-fluoro-1-(4-fluorophenyl)sulfonyl-5-methyl-N-[[5-(trifluoromethoxy)-2-[4-(trifluoromethyl)phenyl]-4-pyridyl]methyl]pyrrolidine-2-carboxamide], the IC50 was found to be 2.77 nM. Take `C[C@H]1[C@H](F)C[C@@H](C(=O)NCc2cc([C@H]3C[C@H](OC(F)(F)F)C3)ncc2F)N1S(=O)(=O)c1ccc(F)cc1` [Example 140, (2S,4R,5S)-4-fluoro-1-(4-fluorophenyl)sulfonyl-N-[[5-fluoro-2-[3-(trifluoromethoxy)cyclobutyl]-4-pyridyl]methyl]-5-methyl-pyrrolidine-2-carboxamide]: the IC50 amounted to 3.56 nM. Consider `C[C@H]1[C@H](F)C[C@@H](C(=O)NCc2cc(-c3cnc(C4CC4)nc3)ncc2F)N1S(=O)(=O)c1ccc(F)cc1` [Example 141, (2S,4R,5S)-N-[[2-(2-cyclopropylpyrimidin-5-yl)-5-fluoro-4-pyridyl]methyl]-4-fluoro-1-(4-fluorophenyl)sulfonyl-5-methyl-pyrrolidine-2-carboxamide], for which the IC50 amounted to 20.4 nM. Consider `C[C@H]1[C@H](F)C[C@@H](C(=O)NCc2cc(-c3cnc(C(F)(F)F)nc3)c(C#N)c(C3CC3)n2)N1S(=O)(=O)c1ccc(F)cc1` [Example 142, (2S,4R,5S)—N-([5-cyano-6-cyclopropyl-4-[2-(trifluoromethyl)pyrimidin-5-yl]pyridin-2-yl]methyl)-4-fluoro-1-[(4-fluorobenzene)sulfonyl]-5-methylpyrrolidine-2-carboxamide], for which the IC50 was 12 nM. With `C[C@H]1[C@H](F)C[C@@H](C(=O)NCc2cc(OCCC3(C(F)(F)F)CC3)nc(C3CC3)n2)N1S(=O)(=O)c1ccc(F)cc1` [Example 143, (2S,4R,5S)-N-[[2-cyclopropyl-6-[2-[1-(trifluoromethyl)cyclopropyl]ethoxy]pyrimidin-4-yl]methyl]-4-fluoro-1-(4-fluorophenyl)sulfonyl-5-methyl-pyrrolidine-2-carboxamide], the IC50 was determined as 22.4 nM. Take `C[C@H]1[C@H](F)C[C@@H](C(=O)NCc2cc(-c3cnc(C(F)(F)F)c(F)c3)c(F)cn2)N1S(=O)(=O)c1ccc(F)cc1` [Example 144, (2S,4R,5S)-4-fluoro-N-[[5-fluoro-4-[5-fluoro-6-(trifluoromethyl)-3-pyridyl]-2-pyridyl]methyl]-1-(4-fluorophenyl)sulfonyl-5-methyl-pyrrolidine-2-carboxamide]: the IC50 was determined as 17 nM. Turning to `C[C@H]1[C@H](F)C[C@@H](C(=O)NCc2cc(N3CC[C@H](OC(F)(F)F)C(F)(F)C3)ncc2F)N1S(=O)(=O)c1ccc(F)cc1` [Example 145, (2S,4R,5S)-N-[[2-[(4S)-3,3-difluoro-4-(trifluoromethoxy)-1-piperidyl]-5-fluoro-4-pyridyl]methyl]-4-fluoro-1-(4-fluorophenyl)sulfonyl-5-methyl-pyrrolidine-2-carboxamide], the IC50 was 8.36 nM. The result for `C[C@H]1[C@H](F)C[C@@H](C(=O)NCc2cc(-c3cnc(C(F)(F)F)nc3)c(OC(F)F)cn2)N1S(=O)(=O)c1ccc(F)cc1` [Example 146, (2S,4R,5S)-N-[[5-(difluoromethoxy)-4-[2-(trifluoromethyl)pyrimidin-5-yl]-2-pyridyl]methyl]-4-fluoro-1-(4-fluorophenyl)sulfonyl-5-methyl-pyrrolidine-2-carboxamide] reads 35 nM; that for `C[C@H]1[C@H](F)C[C@@H](C(=O)NCc2cn([C@H]3CC[C@H](C(F)(F)F)CC3)nc2C(F)(F)F)N1S(=O)(=O)c1ccc(F)cc1` [Example 147, (2S,4R,5S)-4-fluoro-1-(4-fluorophenyl)sulfonyl-5-methyl-N-[[3-(trifluoromethyl)-1-[4-(trifluoromethyl)cyclohexyl]pyrazol-4-yl]methyl]pyrrolidine-2-carboxamide], 24.5 nM; that for `C[C@H]1[C@H](F)C[C@@H](C(=O)NCc2cn(-c3cnc(C(F)(F)F)s3)nc2Cl)N1S(=O)(=O)c1ccc(F)cc1` [Example 148, (4R,5S)-N-[[3-chloro-1-[2-(trifluoromethyl)thiazol-5-yl]pyrazol-4-yl]methyl]-4-fluoro-1-(4-fluorophenyl)sulfonyl-5-methyl-pyrrolidine-2-carboxamide], 7.64 nM. For `O=C(NCc1cc(-c2cnc(C(F)(F)F)nc2)ncc1C(F)(F)F)[C@@H]1[C@H]2C[C@H]2CN1S(=O)(=O)c1ccc(F)cc1` [Example 149, (1S,2S,5R)-3-(4-fluorophenyl)sulfonyl-N-[[5-(trifluoromethyl)-2-[2-(trifluoromethyl)pyrimidin-5-yl]-4-pyridyl]methyl]-3-azabicyclo[3.1.0]hexane-2-carboxamide], the concentration for half-maximal inhibition (IC50) is 0.756 nM. In the case of `O=C(NCc1cc(-c2cnc(C(F)(F)F)nc2)ncc1C(F)F)[C@@H]1[C@H]2C[C@H]2CN1S(=O)(=O)c1ccc(F)cc1` [Example 150, (1R,4S,5S)-N-[[5-(difluoromethyl)-2-[2-(trifluoromethyl)pyrimidin-5-yl]-4-pyridyl]methyl]-3-(4-fluorophenyl)sulfonyl-3-azabicyclo[3.1.0]hexane-4-carboxamide], the IC50 is 5.72 nM. The result for `O=C(NCc1cc(-c2cnc(C(F)(F)F)nc2)nc(C2CC2)n1)[C@@H]1[C@H]2C[C@H]2CN1S(=O)(=O)c1ccc(F)cc1` [Example 151, (1S,2S,5R)-N-[[2-cyclopropyl-6-[2-(trifluoromethyl)pyrimidin-5-yl]pyrimidin-4-yl]-methyl]-3-(4-fluorophenyl)sulfonyl-3-azabicyclo[3.1.0]hexane-2-carboxamide] reads 1 nM; that for `C[C@H]1[C@H](F)C[C@@H](C(=O)NCc2cc(-c3cnc(C(F)(F)F)nc3)cnc2C(F)(F)F)N1S(=O)(=O)c1ccc(F)cc1` [Example 152, (2S,4R,5S)-4-fluoro-1-(4-fluorophenyl)sulfonyl-5-methyl-N-[[2-(trifluoromethyl)-5-[2-(trifluoromethyl)pyrimidin-5-yl]-3-pyridyl]methyl]pyrrolidine-2-carboxamide], 3.03 nM. The result for `C[C@H]1[C@H](F)C[C@@H](C(=O)NCc2cc(-c3cnc(C(F)(F)F)nc3)ncc2C(F)(F)F)N1S(=O)(=O)c1cc2cc(F)ccc2o1` [Example 153, (2S,4R,5S)-4-fluoro-1-(5-fluorobenzofuran-2-yl)sulfonyl-5-methyl-N-[[5-(trifluoromethyl)-2-[2-(trifluoromethyl)pyrimidin-5-yl]-4-pyridyl]methyl]pyrrolidine-2-carboxamide] reads 0.229 nM; that for `C[C@H]1[C@H](F)C[C@@H](C(=O)NCc2cc(-c3cnc(C(F)(F)F)nc3)ncc2F)N1S(=O)(=O)c1cc2cc(F)ccc2o1` [Example 154, (2S,4R,5S)-4-fluoro-1-(5-fluorobenzofuran-2-yl)sulfonyl-N-[[5-fluoro-2-[2-(trifluoromethyl)pyrimidin-5-yl]-4-pyridyl]methyl]-5-methyl-pyrrolidine-2-carboxamide], 0.89 nM.

Consider `C[C@@]1(F)C[C@@H](C(=O)NCc2cc(-c3cnc(C(F)(F)F)nc3)ncc2C(F)(F)F)N(S(=O)(=O)c2ccc(F)cc2)C1` [Example 155, (2S,4R)-4-fluoro-1-(4-fluorophenyl)sulfonyl-4-methyl-N-[[5-(trifluoromethyl)-2-[2-(trifluoromethyl)pyrimidin-5-yl]-4-pyridyl]methyl]pyrrolidine-2-carboxamide], for which the IC50 was 4.24 nM. `C[C@@]1(F)C[C@@H](C(=O)NCc2cc(-c3cnc(C(F)(F)F)nc3)ncc2C(F)(F)F)N(S(=O)(=O)c2cc3cc(F)ccc3o2)C1` [Example 156, (2S,4R)-4-fluoro-1-(5-fluorobenzofuran-2-yl)sulfonyl-4-methyl-N-[[5-(trifluoromethyl)-2-[2-(trifluoromethyl)pyrimidin-5-yl]-4-pyridyl]methyl]pyrrolidine-2-carboxamide]: the IC50 is 1.93 nM.
